One assay deals with T1, FicD^L258D (Homo sapiens, UniProt Q9BVA6, L258D).
T1 construct: soluble ER luminal domain (residues 105 to 458) of wild-type human FicD and three mutants; 6xHis-Sumo (N, cleaved yes); made in house; host or cells: Rosetta(DE3) E. coli
T1 sequence (Q9BVA6 105-458 L258D): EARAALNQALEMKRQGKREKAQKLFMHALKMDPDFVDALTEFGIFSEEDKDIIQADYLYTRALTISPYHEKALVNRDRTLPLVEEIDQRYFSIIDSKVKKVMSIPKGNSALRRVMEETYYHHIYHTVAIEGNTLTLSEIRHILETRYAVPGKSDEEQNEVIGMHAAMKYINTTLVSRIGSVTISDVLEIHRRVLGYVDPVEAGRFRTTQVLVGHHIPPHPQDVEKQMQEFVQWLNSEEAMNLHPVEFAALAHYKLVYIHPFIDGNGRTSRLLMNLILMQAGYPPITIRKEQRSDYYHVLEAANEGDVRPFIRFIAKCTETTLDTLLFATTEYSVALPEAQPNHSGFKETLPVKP
The assay can be described thus: Differential scanning fluorimetry (DSF) thermal shift with FicD^L258D. The class given is binding. Here is the method:
Differential Scanning Fluorimetry
Thermal shift assays were performed in Biorad CfX384 Touch Real-Time PCR Detection System […]
Reactions contained 50mM HEPES pH 7.4, 200mM NaCl, 200mM KCl, 200uM DTT, 5X Invitrogen Sypro Orange (Cat no. S6650), 8-9μM protein, and indicated nucleotide, cofactor, or small molecule in a total volume of 20uL. For every experiment ‘no protein’ controls were also included with the same reaction conditions. All reactions were performed in technical triplicates. Sealed plates containing reaction mixes were centrifuged for 1-5 min at 1000 RPM prior to temperature scanning (FRET channel), which was performed from 6°C […]
DSF data was analyzed with traditional methods automated in a Python package (https://pypi.org/project/instawell/). Briefly, for each temperature, the RFU values of technical triplicates are averaged. For each timepoint, the background fluorescence was subtracted using the RFU values of the ‘no protein’ control. […]
calculated. The melting temperature (Tm) is defined as the first derivative peak value. Data

In assay [1] the target is T2, FicD^WT (Homo sapiens, UniProt Q9BVA6).
T2 construct: soluble ER luminal domain (residues 105 to 458) of wild-type human FicD; 6xHis-Sumo (N, cleaved yes); made in house; host or cells: Rosetta(DE3) E. coli
T2 sequence (Q9BVA6 105-458): T1 sequence (Q9BVA6 105-458 L258D) with D154L
The assay can be described thus: In vitro deAMPylation of Δ26hBiP^T229A-AMP by FicD^WT (Western blot). The class given is biochemical. The settings on record: 100 μM metabolite, 5 mM MgCl2. The text has this:
(§1) We next sought to assess the effects of FPP, GPP, and isoprenoid analogues on FicD activity. To accurately judge the effects of small molecules on FicD AMPylation activity, we used the ATPase defective BiP^T229A mutant as substrate ([22], [49], [50]). Loss of ATP hydrolysis by the BiP mutant ensures: 1. conformational homogeneity of the BiP protein substrate; 2. lack of BiP competition for the ATP substrate; and 3. no production of ADP, a competitive inhibitor for ATP. In addition, we deleted the first 25 amino acids of BiP for ease with its purification and solubility. […]
For deAMPylation assays with FicD and BiP, Δ26hBiPT229A was in-vitro AMPylated by […]
5mM MgCl2, 500uM ATP, 0.5% CHAPS, 1mM DTT. After one hour of incubation at 30-37C, the entire reaction mix was transferred into an Amicon 0.5mL 50kDa MWCO concentrator (cat no.
7.4/150mM NaCl/10% glycerol/1mM DTT was added to the concentrated AMPylation reaction and then spun down again at 14,000 x g at 4C for 5-10 minutes. This step was repeated four times to buffer exchange AMPylated Δ26hBiPT229A.
Δ104hFicDWT and Δ26hBiPT229A-AMP were combined at a ratio of 1:80 in buffer containing 25mM HEPES pH 7.4, 100mM KCl, 5mM MgCl2, 1mM DTT and the indicated small molecule where applicable. Reactions were incubated at 37C for 1 hour and stopped by the addition EDTA. 5X SDS sample buffer (250mM Tris pH 6.8, 10% Lithium dodecyl sulfate, 50% glycerol, 50mM DTT, 0.05% Bromophenol blue) was then added to the reactions and reactions were heated for 5 minutes at […]
On the technique in general: A western blot detects proteins with antibodies after separation by electrophoresis.

The target in assay [2] is T2, FicD^WT. The assay can be described thus: In vitro AMPylation of Δ26hBiP^T229A by FicD^WT (Western blot). The class given is biochemical. The settings on record: 100 μM metabolite, 500 μM ATP, 5 mM MgCl2.
Excerpt: as §1
For AMPylation assays with FicD and BiP, Δ104FicDWT and Δ26hBiPT229A were combined at a ratio
of 1:80 in buffer containing 25mM HEPES pH 7.4, 100mM KCl, 5mM MgCl2, 500μM ATP, 1mM
DTT, and small molecule where indicated. Assays with Δ104FicDWT were incubated for 1 hour.
the amount of FicD as in reactions containing FicDWT and were incubated at 37C for 4.5 hours. […]

The target in assay [3] is T2, FicD^WT. The assay can be described thus: MIDAS equilibrium dialysis/mass spectrometry metabolite screen, FicD^WT. In kind it is binding. Conditions: cutoff Q < 0.05 and |Log2 corrected fold change| > 2, metabolites 5 µM.
Excerpt: (§2) To identify small-molecule metabolite interactions with FicD, we applied an unbiased high-throughput screening approach known as MIDAS ([44]).
A further assay concerns the target T3, FicD^E234G (Homo sapiens, UniProt Q9BVA6, E234G).
T3 construct: soluble ER luminal domain (residues 105 to 458) of wild-type human FicD and three mutants; 6xHis-Sumo (N, cleaved yes); made in house; host or cells: Rosetta(DE3) E. coli
T3 sequence (Q9BVA6 105-458 E234G): T1 sequence (Q9BVA6 105-458 L258D) with E130G, D154L
The assay can be described thus: MIDAS metabolite screen, FicD^E234G. The class given is binding. Conditions: cutoff Q < 0.05 and |Log2 corrected fold change| > 2, metabolites 5 µM.

Numbering of substitutions follows the chain as printed.

Excerpt for FicD^E234G: as §2

With `CC(O)(CCOP(=O)(O)OP(=O)(O)O)CC(=O)O` (stereo not shown) [MVAPP, mevalonate-pyrophosphate], the “binding to FicD^L258D by DSF” value at FicD^L258D (presence of 5 mM MgCl2) was “did not bind”. For the same compound, the “inhibition of deAMPylation activity of FicD^WT” value (from here on “inhibition … of FicD^WT”) at FicD^WT [1] is on record as “did not affect”. Also, on FicD^WT [2], the “inhibition of AMPylation of Δ26hBiP^T229A by FicD^WT” value is “did not”.

On to `CC(C)=CCOP(=O)(O)OP(=O)(O)O` [DMAPP, dimethylallyl-pyrophosphate], for which the “binding to FicD^L258D by DSF” value on FicD^L258D (presence of 5 mM MgCl2) was “did not bind”. Further, the “inhibition … of FicD^WT” value at FicD^WT [1] is “did not affect”. The “inhibition of AMPylation of Δ26hBiP^T229A by FicD^WT” value on FicD^WT [2] is given as “did not”.

Consider `CC(C)=CCC/C(C)=C\CC/C(C)=C\COP(=O)(O)O` [FMP, farnesyl-monophosphate], for which the “binding to FicD^L258D by DSF” value at FicD^L258D (presence of 5 mM MgCl2) is “did not bind”. Moreover, the “inhibition … of FicD^WT” value on FicD^WT [1] is listed as “did not affect”. The “inhibition of AMPylation of Δ26hBiP^T229A by FicD^WT” value at FicD^WT [2] is “did not”.

On to `O=CC(=O)O` [glyoxylic acid], for which, on FicD^WT [3], the “MIDAS protein-metabolite interaction (enrichment/depletion)” value was “significantly depleted”.

For the compound `Nc1ncnc2c1ncn2[C@@H]1O[C@H](COP(=O)(O)OP(=O)(O)OP(=O)(O)O)[C@@H](O)[C@H]1O` [ATP, adenosine triphosphate], the “MIDAS protein-metabolite interaction (enrichment/depletion)” value on FicD^E234G is on record as “did not pass the significance cutoff”. In addition, the “binding to FicD^L258D by DSF” value is given as “did not bind” on FicD^L258D (absence of MgCl2) and “did not show saturation” on FicD^L258D (presence of 5 mM MgCl2).

On to `CC(C)=CCC/C(C)=C/CO` [geraniol], for which the “binding to FicD^L258D by DSF” value at FicD^L258D (presence of 5 mM MgCl2) is reported as “did not bind”. The “inhibition … of FicD^WT” value on FicD^WT [1] is listed as “did not affect”. Besides, the “inhibition of AMPylation of Δ26hBiP^T229A by FicD^WT” value on FicD^WT [2] is recorded as “did not”.

For the compound `CC(C)=CCC/C(C)=C/CC/C(C)=C/CO` [farnesol], at FicD^L258D (presence of 5 mM MgCl2), the “binding to FicD^L258D by DSF” value is “did not bind”. The “inhibition … of FicD^WT” value on FicD^WT [1] is “did not affect”. Also, the “inhibition of AMPylation of Δ26hBiP^T229A by FicD^WT” value on FicD^WT [2] is listed as “did not”.

In the case of `CC(C)=CCC/C(C)=C/COP(=O)(O)O` [GMP, geranyl-monophosphate], on FicD^L258D (presence of 5 mM MgCl2), the “binding to FicD^L258D by DSF” value is given as “did not bind”. In addition, the “inhibition … of FicD^WT” value at FicD^WT [1] is “did not affect”. The “inhibition of AMPylation of Δ26hBiP^T229A by FicD^WT” value at FicD^WT [2] was “did not”.

Values taken from article PMC12974487, “Inhibition of FicD-mediated AMPylation and deAMPylation by isoprenoid diphosphates” (Proceedings of the National Academy of Sciences of the …, 2026).
